Active and inactive are the calls of the source. No cut-off for these calls is given here.
What was measured:
Human alphaherpesvirus 3 [1] = format: functional, cell-based; details: Human alphaherpesvirus 3, 07-1, HEL
Heme [2] = assay: Binding affinity to monomeric heme (unknown origin) assessed as 1:1 stoichiometry for monomeric heme-compound complex at pH 5.6 by Job's plot analysis
[3] = Cytotoxicity against MDCK cells assessed as alteration of normal cell morphology by microscopic analysis; format: cell-based, Canis lupus familiaris; details: dog
Vaccinia virus = assay: microbe, parasite or virus in culture; details: Orthopoxvirus vaccinia, HEL
Human orthopneumovirus = format: functional, cell-based; details: human respiratory syncytial virus, HeLa
Human alphaherpesvirus 1 [4] = format: functional, cell-based; details: Human alphaherpesvirus 1, KOS, HEL
Plasmodium falciparum [5] = assay: microbe, parasite or virus in culture; details: NF54
Coxsackievirus [6] = format: functional, cell-based; details: B4, HeLa
[7] = tested on: Vesicular stomatitis virus; assay: microbe, parasite or virus in culture; details: HEL
Plasmodium falciparum [8] = assay: microbe, parasite or virus in culture; details: Dd2
[9] = tested on: Mammalian orthoreovirus 1; format: functional; details: Mammalian orthoreovirus 1, Vero
[10] = Selectivity index, ratio of IC50 for human HeLa cells to IC50 for chloroquine-sensitive asexual intraerythrocytic stage of Plasmodium falciparum NF54; format: toxicity, cell-based; details: read-out: Ratio IC50
[11] = Cytotoxicity against human HeLa cells assessed as alteration of normal cell morphology by microscopic analysis; format: cell-based
Heme [12] = assay: Binding affinity to monomeric heme (unknown origin) assessed as 1:1 stoichiometry for monomeric heme-compound complex at pH 7.5 by Job's plot analysis
[13] = Cytotoxicity against MDCK cells assessed as inhibition of cell viability by colorimetric formazan-based MTS assay; design: species or system Canis lupus familiaris; details: dog
Human betaherpesvirus 5 [14] = format: functional, cell-based; details: Human betaherpesvirus 5, Davis, HEL
CCRF-CEM = assay: Cytotoxicity against human CEM cells assessed as inhibition of cell proliferation by Coulter counter analysis; format: cell-based
[15] = Cytotoxicity against human HEL cells assessed as alteration of normal cell morphology by microscopic analysis; format: cell-based
Influenza A virus [16] = assay: microbe, parasite or virus in culture; details: H1N1, MDCK
Influenza B virus = assay: microbe, parasite or virus in culture; details: MDCK
Heme [17] = assay: Binding affinity to monomeric heme (unknown origin) assessed as 1:1 ratio of monomeric heme-compound complex at 0.24 mM by mass spectra analysis
Influenza A virus [18] = assay: microbe, parasite or virus in culture; details: H3N2, MDCK
mu-oxodimeric heme = assay: Binding affinity to mu-oxo-heme (unknown origin) assessed as 1:1 stoichiometry for mu-oxo-heme-compound complex at pH 5.8 by Job's plot analysis
Plasmodium falciparum [19] = assay: Resistance index, ratio of IC50 for chloroquine-resistant asexual intraerythrocytic stage of Plasmodium falciparum Dd2 to IC50 for chloroquine-sensitive asexual intraerythrocytic stage of Plasmodium falciparum NF54; format: functional
Coxsackievirus [20] = format: functional; details: B4, Vero
HeLa = assay: Cytotoxicity against human HeLa cells assessed as inhibition of cell proliferation by Coulter counter analysis; format: cell-based
Human betaherpesvirus 5 [21] = format: functional, cell-based; details: Human betaherpesvirus 5, AD169, HEL
Human respirovirus 3 = format: functional; details: Human respirovirus 3, Vero
[22] = tested on: Vesicular stomatitis virus; assay: microbe, parasite or virus in culture; details: HeLa
[23] = Cytotoxicity against african green monkey Vero cells assessed as alteration of normal cell morphology by microscopic analysis; format: cell-based; details: chlorocebus sabaeus
Punta Toro virus = format: functional; details: Vero
unidentified adenovirus = format: functional, cell-based; details: HEL
Human alphaherpesvirus 3 [24] = format: functional, cell-based; details: Human alphaherpesvirus 3, strain Oka vaccine, HEL
Sindbis virus = format: functional; details: Vero
Human alphaherpesvirus 1 [25] = format: functional, cell-based; details: Human alphaherpesvirus 1, KOS, HEL; remark: listed apart in the source
[26] = Cytotoxicity against human HEL cells assessed as inhibition of cell viability by colorimetric formazan-based MTS assay
[27] = Selectivity index, ratio of IC50 for human HeLa cells to IC50 for chloroquine-resistant asexual intraerythrocytic stage of Plasmodium falciparum Dd2; format: toxicity, cell-based; details: read-out: Ratio IC50
Plasmodium falciparum [28] = assay: Potency index, ratio of chloroquine IC50 to test compound IC50 for chloroquine-resistant asexual intraerythrocytic stage of Plasmodium falciparum Dd2; format: functional
L1210 = assay: Cytotoxicity against mouse L1210 cells assessed as inhibition of cell proliferation by Coulter counter analysis; format: cell-based
Human alphaherpesvirus 2 = format: functional, cell-based; details: Human alphaherpesvirus 2, G, HEL
Heme [29] = assay: Binding affinity to monomeric heme (unknown origin) assessed as monomeric heme-compound complex formation up to 37.3 uM by UV-visible absorption spectrophotometry

CSc1nc(NCCCCNc2ccnc3cc(Cl)ccc23)c(C#N)c(-c2cccc([N+](=O)[O-])c2)n1
EC50 (Human alphaherpesvirus 3 [1]): > 0.8 µM
Activity (Heme [2]): Active
MCC [3]: 20 µM
EC50 (Vaccinia virus): > 4 µM
EC50 (Human orthopneumovirus): > 20 µM
EC50 (Human alphaherpesvirus 1 [4]): > 4 µM
IC50 (Plasmodium falciparum [5]): 0.0685 µM
EC50 (Coxsackievirus [6]): > 20 µM
EC50 [7]: > 4 µM
IC50 (Plasmodium falciparum [8]): 0.0558 µM
EC50 [9]: > 4 µM
selectivity ratio [10]: 16
MCC [11]: 100 µM
Activity (Heme [12]): Active
CC50 [13]: 9.6 µM
EC50 (Human betaherpesvirus 5 [14]): > 0.8 µM
IC50 (CCRF-CEM): 2.1 µM
MCC [15]: ≥ 4 µM
EC50 (Influenza A virus [16]): > 4 µM
EC50 (Influenza B virus): > 4 µM
Activity (Heme [17]): Active
EC50 (Influenza A virus [18]): > 4 µM
Activity (mu-oxodimeric heme): Active
Ratio IC50 (Plasmodium falciparum [19]): 0.81
EC50 (Coxsackievirus [20]): > 4 µM
IC50 (HeLa): 1.1 µM
EC50 (Human betaherpesvirus 5 [21]): > 0.8 µM
EC50 (Human respirovirus 3): > 4 µM
EC50 [22]: > 20 µM
MCC [23]: 20 µM
EC50 (Punta Toro virus): > 4 µM
EC50 (unidentified adenovirus): > 4 µM
EC50 (Human alphaherpesvirus 3 [24]): > 0.8 µM
EC50 (Sindbis virus): > 4 µM
EC50 (Human alphaherpesvirus 1 [25]): > 4 µM
CC50 [26]: 4.2 µM
selectivity ratio [27]: 19.7
Ratio IC50 (Plasmodium falciparum [28]): 4
IC50 (L1210): 2.1 µM
EC50 (Human alphaherpesvirus 2): > 4 µM

CSc1nc(-c2ccccc2)c(C#N)c(N2CCN(c3ccnc4cc(Cl)ccc34)CC2)n1
EC50 (Human alphaherpesvirus 3 [1]): > 100 µM
MCC [3]: > 100 µM
EC50 (Vaccinia virus): > 100 µM
EC50 (Human orthopneumovirus): > 100 µM
EC50 (Human alphaherpesvirus 1 [4]): > 100 µM
IC50 (Plasmodium falciparum [5]): 132 µM
EC50 (Coxsackievirus [6]): > 100 µM
EC50 [7]: > 100 µM
IC50 (Plasmodium falciparum [8]): 212 µM
EC50 [9]: > 100 µM
selectivity ratio [10]: > 1.9
MCC [11]: > 100 µM
CC50 [13]: > 100 µM
EC50 (Human betaherpesvirus 5 [14]): > 100 µM
IC50 (CCRF-CEM): > 250 µM
MCC [15]: ≥ 100 µM
EC50 (Influenza A virus [16]): > 100 µM
EC50 (Influenza B virus): > 100 µM
EC50 (Influenza A virus [18]): > 100 µM
Ratio IC50 (Plasmodium falciparum [19]): 1.6
EC50 (Coxsackievirus [20]): > 100 µM
IC50 (HeLa): > 250 µM
EC50 (Human betaherpesvirus 5 [21]): > 20 µM
EC50 (Human respirovirus 3): > 100 µM
EC50 [22]: > 100 µM
MCC [23]: > 100 µM
EC50 (Punta Toro virus): > 100 µM
EC50 (unidentified adenovirus): > 100 µM
EC50 (Human alphaherpesvirus 3 [24]): > 100 µM
EC50 (Sindbis virus): > 100 µM
EC50 (Human alphaherpesvirus 1 [25]): > 100 µM
CC50 [26]: > 100 µM
selectivity ratio [27]: > 1.1
IC50 (L1210): > 250 µM
Activity (Heme [29]): inactive
EC50 (Human alphaherpesvirus 2): > 100 µM

COc1cc(-c2nc(SC)nc(NCCCCNc3ccnc4cc(Cl)ccc34)c2C#N)cc(OC)c1OC
EC50 (Human alphaherpesvirus 3 [1]): > 4 µM
MCC [3]: 4 µM
EC50 (Vaccinia virus): > 0.8 µM
EC50 (Human orthopneumovirus): > 4 µM
EC50 (Human alphaherpesvirus 1 [4]): > 0.8 µM
IC50 (Plasmodium falciparum [5]): 0.0909 µM
EC50 (Coxsackievirus [6]): > 4 µM
EC50 [7]: > 0.8 µM
IC50 (Plasmodium falciparum [8]): 0.0895 µM
EC50 [9]: > 0.8 µM
selectivity ratio [10]: 37.4
MCC [11]: 20 µM
CC50 [13]: 2 µM
EC50 (Human betaherpesvirus 5 [14]): > 4 µM
IC50 (CCRF-CEM): 3.6 µM
MCC [15]: 4 to 20 µM
EC50 (Influenza A virus [16]): > 0.8 µM
EC50 (Influenza B virus): > 0.8 µM
EC50 (Influenza A virus [18]): > 0.8 µM
Ratio IC50 (Plasmodium falciparum [19]): 0.98
EC50 (Coxsackievirus [20]): > 0.8 µM
IC50 (HeLa): 3.4 µM
EC50 (Human betaherpesvirus 5 [21]): > 4 µM
EC50 (Human respirovirus 3): > 0.8 µM
EC50 [22]: > 4 µM
MCC [23]: 4 µM
EC50 (Punta Toro virus): > 0.8 µM
EC50 (unidentified adenovirus): > 0.8 µM
EC50 (Human alphaherpesvirus 3 [24]): > 4 µM
EC50 (Sindbis virus): > 0.8 µM
EC50 (Human alphaherpesvirus 1 [25]): > 0.8 µM
CC50 [26]: 1.5 µM
selectivity ratio [27]: 37.9
Ratio IC50 (Plasmodium falciparum [28]): 3
IC50 (L1210): 3.8 µM
EC50 (Human alphaherpesvirus 2): > 0.8 µM

CSc1nc(NCCCCNc2ccnc3cc(Cl)ccc23)c(C#N)c(-c2ccc(C)cc2)n1
EC50 (Human alphaherpesvirus 3 [1]): > 4 µM
MCC [3]: 20 µM
EC50 (Vaccinia virus): > 4 µM
EC50 (Human orthopneumovirus): > 20 µM
EC50 (Human alphaherpesvirus 1 [4]): > 4 µM
IC50 (Plasmodium falciparum [5]): 0.119 µM
EC50 (Coxsackievirus [6]): > 20 µM
EC50 [7]: > 4 µM
IC50 (Plasmodium falciparum [8]): 0.543 µM
EC50 [9]: > 4 µM
selectivity ratio [10]: 41.9
MCC [11]: 100 µM
CC50 [13]: 9.9 µM
EC50 (Human betaherpesvirus 5 [14]): > 4 µM
IC50 (CCRF-CEM): 4.9 µM
MCC [15]: 20 µM
EC50 (Influenza A virus [16]): > 4 µM
EC50 (Influenza B virus): > 4 µM
EC50 (Influenza A virus [18]): > 4 µM
Ratio IC50 (Plasmodium falciparum [19]): 4.54
EC50 (Coxsackievirus [20]): > 4 µM
IC50 (HeLa): 5 µM
EC50 (Human betaherpesvirus 5 [21]): > 4 µM
EC50 (Human respirovirus 3): > 4 µM
EC50 [22]: > 20 µM
MCC [23]: 20 µM
EC50 (Punta Toro virus): > 4 µM
EC50 (unidentified adenovirus): > 4 µM
EC50 (Human alphaherpesvirus 3 [24]): > 4 µM
EC50 (Sindbis virus): > 4 µM
EC50 (Human alphaherpesvirus 1 [25]): > 4 µM
CC50 [26]: 8.2 µM
selectivity ratio [27]: 9.2
IC50 (L1210): 4.3 µM
EC50 (Human alphaherpesvirus 2): > 4 µM

COc1ccc(-c2nc(SC)nc(NCCCCNc3ccnc4cc(Cl)ccc34)c2C#N)cc1OC
EC50 (Human alphaherpesvirus 3 [1]): > 20 µM
MCC [3]: 20 µM
EC50 (Vaccinia virus): > 100 µM
EC50 (Human orthopneumovirus): > 20 µM
EC50 (Human alphaherpesvirus 1 [4]): > 100 µM
IC50 (Plasmodium falciparum [5]): 0.193 µM
EC50 (Coxsackievirus [6]): > 20 µM
EC50 [7]: > 100 µM
IC50 (Plasmodium falciparum [8]): 1.28 µM
EC50 [9]: > 100 µM
selectivity ratio [10]: 104
MCC [11]: 100 µM
CC50 [13]: 10 µM
EC50 (Human betaherpesvirus 5 [14]): > 20 µM
IC50 (CCRF-CEM): 16 µM
MCC [15]: ≥ 100 µM
EC50 (Influenza A virus [16]): > 4 µM
EC50 (Influenza B virus): > 4 µM
EC50 (Influenza A virus [18]): > 4 µM
Ratio IC50 (Plasmodium falciparum [19]): 6.65
EC50 (Coxsackievirus [20]): > 100 µM
IC50 (HeLa): 20 µM
EC50 (Human betaherpesvirus 5 [21]): > 20 µM
EC50 (Human respirovirus 3): > 100 µM
EC50 [22]: > 20 µM
MCC [23]: > 100 µM
EC50 (Punta Toro virus): > 100 µM
EC50 (unidentified adenovirus): > 20 µM
EC50 (Human alphaherpesvirus 3 [24]): > 20 µM
EC50 (Sindbis virus): > 100 µM
EC50 (Human alphaherpesvirus 1 [25]): > 100 µM
CC50 [26]: 84.1 µM
selectivity ratio [27]: 15.5
IC50 (L1210): 18 µM
EC50 (Human alphaherpesvirus 2): > 100 µM

— ChEMBL document CHEMBL4000146, “Synthesis, antiplasmodial activity and mechanistic studies of pyrimidine-5-carbonitrile and quinoline hybrids” (Eur J Med Chem, 2015)
